Ends that are not written are not given here. Peptide text beside a SMILES is read from it.
Legend:
[1] = MTT assay, toxicity on HDFa cells; type: cell-based; settings: human, normalized to non-treated cells, read-out: Cell viability
Experimental: (§1) Toxicity of cycled peptides A and B was analyzed on human dermal fibroblasts (HDFa) and adult human epidermal keratinocytes HEKa cells by MTT assay. A stock solution of the peptide was prepared in distilled water at 25 mg/mL. This stock solution was further diluted to obtain the final working concentrations (0.001, 0.005, 0.01, 0.05, 0.1 and 0.5 mg/mL) in the corresponding culture medium. Untreated cells were used as negative control samples (Basal).
(§2) Briefly, HEKa and HDFa cells were seeded in 96-well plates at a concentration of 1×10^5 cells/mL in a final volume of 200 µL of medium (20,000 cells/well). HEKa cells were incubated in Dermal Cell Basal Medium supplemented with the Keratinocytes Growth Kit; and HDFa cells were cultured in Medium 106 supplemented with 2% of LSGS. Cells were incubated at 37°C, 5% CO2 and saturated humidity.
(§3) After 24 h of incubation, cells were treated with different concentrations of each peptide (0.001, 0.005, 0.01, 0.05, 0.1 and 0.5 mg/mL) in triplicates, for MTT evaluation. After 24 h of treatment with the peptide, medium was completely removed, and 100 µL of 0.5 mg/mL MTT solution in supplemented medium were added to each well and cells were incubated at 37°C for 3 h. After incubating with MTT, the medium of each well was aspirated and 150 µL of DMSO were added in order to solubilise the formazan crystals formed. The plates were placed on a shaker for 5 minutes for complete solubilisation of the crystals and then the absorbance at 570 nm of each well was determined, using the microplate reader Multiskan FC, which is directly proportional to the number of living cells in culture.
(§4) Absorbance values were normalized using the data obtained for non-treated cells (control), obtaining the % of viability shown in Tables 1 and 2. Each condition was performed in triplicate (n=3) in 3 independent experiments (N=3).
(§5) Concentrations of peptide for which viability is above 80% are considered safe for efficacy testing. On the contrary, concentrations for which viability goes below 80% are considered potentially toxic and are not used for efficacy testing purposes. Table 1: Toxicity of cycled peptides on HDFa cells.

[2] = MTT assay, toxicity on HEKa cells; type: cell-based; settings: human, normalized to non-treated cells, read-out: Cell viability
Experimental: as §1, §2, §3, §4, §5

[3] = system: Caspase 3 (CASP3); test: Caspase 3 activity under BFA-induced endoplasmic reticulum stress in HEKa (Caspase-Glo 3/7); type: cell-based, human; settings: BFA-induced ER stress, 24 h, vs BFA-treated cells (Figure 5)
Experimental: Caspase 3 (CASP3) is a protein member of the cysteine-aspartic acid protease family. Sequential activation of caspases plays a central role in the execution-phase of cell apoptosis. It was evaluated the effect of the cycled peptide B on the caspase 3 activity in human epidermal keratinocytes from adult (HEKa) subjected to endoplasmic reticulum (ER) stress.
HEKa cells were seeded in a black 96-well plate at a density of 18.000 cell/well in Dermal Cell Basal Medium (DCBM) and incubated at 37 °C in a humidified atmosphere with 5% CO2. After 24 h of incubation, cells were treated with 0.15 µg/mL BFA alone or in the presence of 0.005 mg/mL of the cycled peptide B and returned to the incubator for 24 h more. Untreated cells (Basal) were used as negative control samples. 24 hours after treatment, caspase 3 activity was evaluated using Caspase-Glo® 3/7 Assay System, following manufacturer instructions.
Each condition was performed at least in triplicates (n=3) in three independent experiments (N=3). For all data, mean values of relative fluorescence units (RFU) of the different experiments and SEM values are shown. All data was normalized as follows: % vs BFA = (RFU treated cells)/(RFU BFA treated cells) × 100 [formula]
Statistical data analysis was performed using Student t-test by comparison of % activity from test substance vs BFA-treated cells, *p<0.05, **p<0.01, ***p<0.001.

[4] = system: CALR; test: RT-qPCR expression of CALR gene in HEKa; settings: 0.01 mg/mL, 24 hours, qPCR (Table 5)
Experimental: HEKa cells were incubated in the presence of 0.01 mg/mL cycled peptide B for 24 hours and HDFa cells were treated with 0.05 mg/mL of cycled peptide B for 6 h. Then, cells were lysed, and RNA was extracted (RNeasy mini kit, Qiagen). Purified RNAs were retro-transcribed (High-capacity cDNA reverse transcription kit, Applied Biosystems). RT-qPCR was performed with the panel of TaqMan assay probes (Thermo Fisher Scientific) using StepOne plus Real time PCR instrument. […] The obtained data were analyzed using the ΔΔCt method, which provides the target gene expression values as fold changes in the treated sample compared with an untreated basal sample. Both samples were normalized with the relative expression of the housekeeping gene GAPDH.
Additionally, expression of CALR after treatment with 0.01 mg/mL of cycled peptides A and B for 24 hours in HEKa cells was analyze by qPCR as described in example 3.

caspase 3 activity [3]	CALR expression, Ratio ([4]; Basal = 1.00)	Molecule	viability at 24 h ([1]; 0.001 mg/mL peptide)	viability at 24 h ([1]; 0.005 mg/mL peptide)	viability at 24 h ([1]; 0.01 mg/mL peptide)	viability at 24 h ([1]; 0.05 mg/mL peptide)	viability at 24 h ([1]; 0.1 mg/mL peptide)	viability at 24 h ([1]; 0.5 mg/mL peptide)	viability at 24 h ([2]; 0.001 mg/mL peptide)	viability at 24 h ([2]; 0.005 mg/mL peptide)	viability at 24 h ([2]; 0.01 mg/mL peptide)	viability at 24 h ([2]; 0.05 mg/mL peptide)	viability at 24 h ([2]; 0.1 mg/mL peptide)	viability at 24 h ([2]; 0.5 mg/mL peptide)	CALR expression, Effect [4]
significantly reduce	1.34	CC(C)C[C@@H]1NC(=O)[C@H](C)NC(=O)[C@H](CCCNC(=N)N)NC(=O)[C@H](Cc2ccccc2)NC(=O)[C@H](Cc2c[nH]c3ccccc23)NC(=O)[C@H](Cc2c[nH]cn2)NC1=O [Peptide A, cyclo-Trp-Phe-Arg-Ala-Leu-His] (cyclo(ALHWFR))	101%	103%	94.5%	103%	92.3%	81.5%	103%	108%	109%	93.8%	88.3%	75%	Upregulation
–	–	FWHALR [Linear peptide B, reference compound]	–	–	–	–	–	–	–	–	–	–	–	–	No effect
